Experimental data taken from ChEMBL document CHEMBL1201862, “PubChem BioAssay data set” (2004).
Calls of active or inactive are those of the source.

Key:
[1] = biological target: Sphingosine 1-phosphate receptor 1 (Homo sapiens, UniProt P21453); format: functional;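 further: Tango beta-arrestin reporter U2OS cells stimulated with S1P near its EC80; inhibitor potency meaning antagonism of receptor activation by the natural agonist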
Paired box protein Pax-8 = Paired box protein Pax-8 (Homo sapiens, UniProt Q06710); assay: PAX8 transcriptional activity inhibition in RMG-I – RMG-I cells, luciferase, cherry-pick, dose response (AID 687027); format: functional, cell-based;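 further: luciferase reporter driven by Pax8 target thyroperoxidase promoter measured by SteadyGlo luminescence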
[2] = biological target: T1, Replicative DNA helicase DnaB (Mycobacterium tuberculosis, UniProt P9WMR3); assay: DnaB intein splicing inhibitors, dose response, biochemical, cell-free fluorescence (AID 449749); format: functional
T1 sequence (P9WMR3 whole entry): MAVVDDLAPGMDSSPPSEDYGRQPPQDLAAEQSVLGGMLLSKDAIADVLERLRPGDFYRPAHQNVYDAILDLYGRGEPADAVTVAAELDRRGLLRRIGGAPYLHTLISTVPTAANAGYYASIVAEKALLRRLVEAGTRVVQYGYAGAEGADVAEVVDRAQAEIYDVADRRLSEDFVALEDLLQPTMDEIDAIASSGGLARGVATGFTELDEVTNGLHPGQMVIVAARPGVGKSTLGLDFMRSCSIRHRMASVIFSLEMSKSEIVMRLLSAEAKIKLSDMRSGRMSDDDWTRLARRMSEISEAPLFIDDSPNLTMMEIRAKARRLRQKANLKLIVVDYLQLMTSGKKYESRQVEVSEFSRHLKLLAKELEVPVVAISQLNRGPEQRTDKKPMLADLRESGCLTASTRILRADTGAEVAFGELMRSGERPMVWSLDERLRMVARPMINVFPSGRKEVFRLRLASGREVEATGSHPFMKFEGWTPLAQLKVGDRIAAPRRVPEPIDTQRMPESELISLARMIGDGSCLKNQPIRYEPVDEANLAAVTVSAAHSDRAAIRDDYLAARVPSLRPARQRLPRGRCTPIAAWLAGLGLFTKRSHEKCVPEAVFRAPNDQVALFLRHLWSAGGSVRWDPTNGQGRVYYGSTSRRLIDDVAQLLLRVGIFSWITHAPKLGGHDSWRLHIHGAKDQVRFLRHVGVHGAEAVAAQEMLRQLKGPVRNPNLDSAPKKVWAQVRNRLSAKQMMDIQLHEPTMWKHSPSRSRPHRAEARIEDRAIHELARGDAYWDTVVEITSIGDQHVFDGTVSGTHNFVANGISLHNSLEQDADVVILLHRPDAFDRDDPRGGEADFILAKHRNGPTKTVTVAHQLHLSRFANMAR

Protein RecA = biological target: T2, Protein RecA (Mycobacterium tuberculosis, UniProt P9WHJ3); assay: Fluorescence Cell-Free Homogeneous Dose Retest to Identify Inhibitors of RecA-Intein Splicing Activity. [Related pubchem assays (depositor defined):AID2097, AID2223, AID489010, AID492950]; format: functional
T2 sequence (P9WHJ3 whole entry): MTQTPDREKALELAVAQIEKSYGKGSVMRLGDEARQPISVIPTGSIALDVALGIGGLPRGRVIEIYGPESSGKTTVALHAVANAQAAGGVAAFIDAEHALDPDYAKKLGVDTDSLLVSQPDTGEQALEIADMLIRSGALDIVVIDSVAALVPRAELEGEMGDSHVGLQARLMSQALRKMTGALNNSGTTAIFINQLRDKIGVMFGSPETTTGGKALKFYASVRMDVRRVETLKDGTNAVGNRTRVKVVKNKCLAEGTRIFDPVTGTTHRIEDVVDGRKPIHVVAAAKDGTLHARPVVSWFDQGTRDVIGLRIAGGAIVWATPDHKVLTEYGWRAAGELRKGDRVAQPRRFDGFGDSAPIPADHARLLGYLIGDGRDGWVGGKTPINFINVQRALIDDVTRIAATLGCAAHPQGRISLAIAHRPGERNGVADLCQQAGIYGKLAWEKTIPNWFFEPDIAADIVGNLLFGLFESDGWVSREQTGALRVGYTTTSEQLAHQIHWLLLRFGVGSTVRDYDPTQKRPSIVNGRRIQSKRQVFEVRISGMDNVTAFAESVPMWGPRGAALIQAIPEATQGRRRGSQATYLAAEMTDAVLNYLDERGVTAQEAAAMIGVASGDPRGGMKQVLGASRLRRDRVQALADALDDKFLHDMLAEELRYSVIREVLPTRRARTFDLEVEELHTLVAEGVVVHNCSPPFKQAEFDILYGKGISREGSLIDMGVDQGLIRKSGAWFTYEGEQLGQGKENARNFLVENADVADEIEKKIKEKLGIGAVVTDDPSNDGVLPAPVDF

[3] = Luminescence Cell-Based Dose Confirmation HTS to Identify Inhibitors of Platelet Dense Granule Release. [Related pubchem assays: 1663 (Primary HTS), 1678 (Summary of Project)]; format: functional
Beta Lactamase = Beta Lactamase (Pseudomonas aeruginosa, UniProt Q932Y6); assay: BLA reporter interference, concentration series – BLA reporter cells, FRET fluorescence, artefact control for TLR9-MyD88 binding inhibitor project, dose response (AID 588341); format: cell-based;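 further: cell based assay in CHO-K1 cells stably expressing beta-lactamase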
[4] = biological target: Luciferin 4-monooxygenase (Photinus pyralis, UniProt P08659); assay: inhibition of purified Photinus pyralis luciferase – biochemical, luminescence, dose response (AID 1891)
A-375 [5] = assay: proliferation inhibition in MITF-low A375 cells – cell-based, cherry-pick samples, set 2, counter-screen for MITF modulator project, dose response (AID 540335); format: functional; settings: Homo sapiens
CHO = CHO cell viability loss, potency – luminescence, cytotoxicity control for TLR9-MyD88 binding inhibitor project, dose response (AID 588339); format: functional, cell-based, hamster; settings: Cricetulus griseus;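 further: CHO cells stably coexpressing TLR9 and MyD88 fusions from primary screen; compound exposure lasted 48 hours before viability readout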
[6] = Fluorescence Cell-Based Dose Response to Identify Inhibitors of Thrombin Receptor-Activating Peptide SFLLRN-Mediated P-Selectin Induction on Platelets. [Related pubchem assays: 1663 (Primary HTS), 1889 (retest at dose ), 1891 (counterscreen), 1678 (Project Summary)]; format: functional
[7] = biological target: T3, Sphingosine 1-phosphate receptor 4 (Homo sapiens, UniProt O95977); assay: Fluorescence dose response cell-based high throughput screening assay for antagonists of the Sphingosine 1-Phosphate Receptor 4 (S1P4). [Related pubchem assays: 1524 (Confirmation in triplicates.), 1510 (Primary screen.)]; format: functional
T3 sequence (O95977 whole entry): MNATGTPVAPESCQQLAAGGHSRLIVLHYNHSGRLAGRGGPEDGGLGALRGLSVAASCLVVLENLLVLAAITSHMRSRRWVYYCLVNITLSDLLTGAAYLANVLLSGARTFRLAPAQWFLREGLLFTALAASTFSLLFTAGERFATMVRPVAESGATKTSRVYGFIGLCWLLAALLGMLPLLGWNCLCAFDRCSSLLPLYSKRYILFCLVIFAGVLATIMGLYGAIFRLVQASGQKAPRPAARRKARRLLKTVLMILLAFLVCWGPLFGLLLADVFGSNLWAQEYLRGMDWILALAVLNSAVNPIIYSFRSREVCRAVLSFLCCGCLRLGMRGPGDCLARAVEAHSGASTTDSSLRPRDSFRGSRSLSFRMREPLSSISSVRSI

A-375 [8] = assay: MITF: Counter assay: A375 proliferation Measured in Cell-Based System Using Plate Reader - 2084-03_Inhibitor_Dose_DryPowder_Activity. [Related pubchem assays (depositor defined):AID488944]; format: functional; settings: Homo sapiens
Ion channel NompC [9] = biological target: T4, Ion channel NompC (Danio rerio, UniProt Q7T1G6); assay: Late stage counterscreen for the probe development effort to identify selective agonists of the Transient Receptor Potential Channels 3 (TRPML3): fluorescence-based cell-based dose response assay for TRPN1 agonists.; format: functional
Mucolipin-3 [10] = biological target: T5, Mucolipin-3 (Homo sapiens, UniProt Q8TDD5); assay: Dose response cell-based high-throughput screening assay for agonists of the transient receptor potential channel ML3 (TRPML3). [Related pubchem assays: 1526, 1424, 1448 ]; format: functional
T5 sequence (Q8TDD5 whole entry): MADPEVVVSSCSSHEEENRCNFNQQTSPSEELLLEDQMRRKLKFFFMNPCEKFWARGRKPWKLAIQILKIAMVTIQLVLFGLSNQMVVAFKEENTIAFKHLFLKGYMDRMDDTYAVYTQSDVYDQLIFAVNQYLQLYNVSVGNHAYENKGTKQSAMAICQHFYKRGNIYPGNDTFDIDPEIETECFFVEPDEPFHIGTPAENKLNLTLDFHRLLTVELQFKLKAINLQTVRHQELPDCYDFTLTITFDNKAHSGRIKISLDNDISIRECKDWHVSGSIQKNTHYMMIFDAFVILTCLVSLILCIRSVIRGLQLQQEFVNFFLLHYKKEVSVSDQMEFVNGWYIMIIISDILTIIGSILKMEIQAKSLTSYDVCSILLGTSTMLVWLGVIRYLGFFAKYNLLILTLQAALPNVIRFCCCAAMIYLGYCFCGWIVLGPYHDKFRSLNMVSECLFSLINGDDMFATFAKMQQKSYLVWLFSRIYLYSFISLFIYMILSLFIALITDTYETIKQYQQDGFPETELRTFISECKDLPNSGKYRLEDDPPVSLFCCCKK

Mucolipin-3 [11] = biological target: T5, Mucolipin-3; assay: human mucolipin-3 activators, concentration-response – cell-based, calcium fluorescence, dose response (AID 2510); format: functional
[12] = biological target: T6, Corticotropin-releasing factor receptor 2/Corticotropin-releasing factor-binding protein (Homo sapiens, UniProt P24387+Q13324); assay: activators of CRF receptor 2 with binding protein – uHTS hits, confirmation (AID 602473); format: functional; settings: read-out: EC50_Mean
T6 sequence (Q13324 whole entry): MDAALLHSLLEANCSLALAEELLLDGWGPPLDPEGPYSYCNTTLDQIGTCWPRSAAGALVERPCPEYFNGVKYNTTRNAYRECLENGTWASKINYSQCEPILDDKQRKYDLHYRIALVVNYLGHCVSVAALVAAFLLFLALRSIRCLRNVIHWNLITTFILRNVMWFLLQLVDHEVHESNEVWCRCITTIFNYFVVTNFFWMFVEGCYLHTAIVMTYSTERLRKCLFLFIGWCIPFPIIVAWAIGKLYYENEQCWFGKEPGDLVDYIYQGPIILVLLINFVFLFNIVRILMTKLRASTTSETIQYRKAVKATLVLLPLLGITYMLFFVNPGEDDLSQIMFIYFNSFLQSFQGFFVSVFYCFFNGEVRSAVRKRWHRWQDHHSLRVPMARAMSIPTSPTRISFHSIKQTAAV
T6 sequence (P24387 whole entry): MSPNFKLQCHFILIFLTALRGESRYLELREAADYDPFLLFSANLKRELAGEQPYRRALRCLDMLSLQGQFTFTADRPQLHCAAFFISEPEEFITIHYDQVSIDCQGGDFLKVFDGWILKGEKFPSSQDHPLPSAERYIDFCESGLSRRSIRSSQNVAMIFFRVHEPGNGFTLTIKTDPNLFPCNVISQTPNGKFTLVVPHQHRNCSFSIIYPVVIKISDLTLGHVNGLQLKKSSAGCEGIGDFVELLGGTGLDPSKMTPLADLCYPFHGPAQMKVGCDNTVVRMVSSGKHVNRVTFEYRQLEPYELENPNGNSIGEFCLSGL

Ion channel NompC [13] = biological target: T4, Ion channel NompC; assay: Fluorescence counterscreen assay for TRPML3 agonists: dose response cell-based high-throughput screening assay to identify agonists of the transient receptor potential channel N1 (TRPN1). [Related pubchem assays: 1526, 1424, 1448 ]; format: functional
NADPH oxidase 1 = biological target: T7, NADPH oxidase 1 (Homo sapiens, UniProt Q9Y5S8); assay: Late-stage luminescence-based cell-based dose response assay to identify inhibitors of NADPH oxidase 1 (NOX1): Synthesized analogs 2.; format: functional
T7 sequence (Q9Y5S8 whole entry): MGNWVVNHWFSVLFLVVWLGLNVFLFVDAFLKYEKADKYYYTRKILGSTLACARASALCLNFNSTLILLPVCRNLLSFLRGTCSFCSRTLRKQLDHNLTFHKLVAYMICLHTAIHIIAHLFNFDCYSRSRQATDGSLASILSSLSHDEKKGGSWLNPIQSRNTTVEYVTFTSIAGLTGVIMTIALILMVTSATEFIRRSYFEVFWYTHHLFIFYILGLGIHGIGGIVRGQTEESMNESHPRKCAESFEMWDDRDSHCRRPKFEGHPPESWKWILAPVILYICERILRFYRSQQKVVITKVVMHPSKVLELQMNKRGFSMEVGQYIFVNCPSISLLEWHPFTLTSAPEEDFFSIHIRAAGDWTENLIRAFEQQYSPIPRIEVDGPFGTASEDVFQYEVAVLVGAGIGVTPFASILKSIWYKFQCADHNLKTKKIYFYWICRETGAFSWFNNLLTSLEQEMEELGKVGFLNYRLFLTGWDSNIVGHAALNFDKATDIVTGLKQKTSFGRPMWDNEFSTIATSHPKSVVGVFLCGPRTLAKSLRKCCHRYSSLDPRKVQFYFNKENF

T4 sequence (Q7T1G6 whole entry): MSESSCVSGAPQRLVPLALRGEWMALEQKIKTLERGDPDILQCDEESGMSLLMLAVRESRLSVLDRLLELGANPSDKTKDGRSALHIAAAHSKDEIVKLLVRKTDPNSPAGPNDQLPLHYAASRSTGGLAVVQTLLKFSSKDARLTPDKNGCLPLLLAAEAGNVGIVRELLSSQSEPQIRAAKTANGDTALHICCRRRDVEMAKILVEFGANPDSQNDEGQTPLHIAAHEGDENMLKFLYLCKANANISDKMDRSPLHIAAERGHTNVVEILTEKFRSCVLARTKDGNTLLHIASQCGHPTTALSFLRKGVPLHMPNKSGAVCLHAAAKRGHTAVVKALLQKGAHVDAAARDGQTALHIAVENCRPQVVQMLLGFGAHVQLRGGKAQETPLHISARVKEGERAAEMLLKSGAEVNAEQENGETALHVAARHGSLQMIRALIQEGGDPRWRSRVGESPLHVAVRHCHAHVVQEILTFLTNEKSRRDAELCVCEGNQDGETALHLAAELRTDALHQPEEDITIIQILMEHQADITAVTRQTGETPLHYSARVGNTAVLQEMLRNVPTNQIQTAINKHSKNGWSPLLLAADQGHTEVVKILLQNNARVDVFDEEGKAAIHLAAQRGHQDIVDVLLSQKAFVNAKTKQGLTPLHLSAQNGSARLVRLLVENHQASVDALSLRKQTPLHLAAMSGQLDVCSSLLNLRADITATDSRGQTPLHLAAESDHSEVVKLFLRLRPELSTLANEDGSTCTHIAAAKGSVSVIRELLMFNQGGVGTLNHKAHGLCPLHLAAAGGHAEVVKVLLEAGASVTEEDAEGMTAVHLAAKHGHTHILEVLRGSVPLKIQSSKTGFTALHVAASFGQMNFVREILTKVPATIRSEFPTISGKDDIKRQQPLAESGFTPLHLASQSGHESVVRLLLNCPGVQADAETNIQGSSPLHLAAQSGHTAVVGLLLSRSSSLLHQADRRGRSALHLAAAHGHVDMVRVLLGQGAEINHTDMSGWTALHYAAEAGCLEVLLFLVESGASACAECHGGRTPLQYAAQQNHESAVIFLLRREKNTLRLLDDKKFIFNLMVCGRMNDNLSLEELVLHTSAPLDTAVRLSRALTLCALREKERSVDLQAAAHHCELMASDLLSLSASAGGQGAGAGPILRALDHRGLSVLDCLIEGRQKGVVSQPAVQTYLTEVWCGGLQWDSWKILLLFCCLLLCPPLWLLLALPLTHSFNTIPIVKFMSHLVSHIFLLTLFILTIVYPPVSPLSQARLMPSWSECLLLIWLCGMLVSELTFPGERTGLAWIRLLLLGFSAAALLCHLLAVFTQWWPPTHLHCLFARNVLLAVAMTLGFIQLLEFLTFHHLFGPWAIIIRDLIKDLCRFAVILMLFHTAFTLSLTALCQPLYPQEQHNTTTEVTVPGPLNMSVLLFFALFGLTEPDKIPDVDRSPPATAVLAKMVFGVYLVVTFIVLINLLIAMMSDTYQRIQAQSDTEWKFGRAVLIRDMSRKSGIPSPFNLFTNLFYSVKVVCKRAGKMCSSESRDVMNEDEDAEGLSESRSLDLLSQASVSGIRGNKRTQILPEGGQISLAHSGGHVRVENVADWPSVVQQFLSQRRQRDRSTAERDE
Sphingosine 1-phosphate receptor 1, sequence (P21453 whole entry): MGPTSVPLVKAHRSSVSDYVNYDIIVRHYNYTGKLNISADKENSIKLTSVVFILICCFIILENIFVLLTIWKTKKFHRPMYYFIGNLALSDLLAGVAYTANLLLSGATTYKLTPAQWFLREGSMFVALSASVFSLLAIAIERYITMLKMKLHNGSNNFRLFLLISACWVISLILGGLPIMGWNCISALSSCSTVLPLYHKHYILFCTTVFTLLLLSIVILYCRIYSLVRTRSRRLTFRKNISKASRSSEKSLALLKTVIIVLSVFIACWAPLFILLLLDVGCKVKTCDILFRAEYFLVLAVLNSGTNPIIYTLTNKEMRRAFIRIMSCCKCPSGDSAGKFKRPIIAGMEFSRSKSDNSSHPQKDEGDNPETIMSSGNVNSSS
Luciferin 4-monooxygenase, sequence (P08659 whole entry): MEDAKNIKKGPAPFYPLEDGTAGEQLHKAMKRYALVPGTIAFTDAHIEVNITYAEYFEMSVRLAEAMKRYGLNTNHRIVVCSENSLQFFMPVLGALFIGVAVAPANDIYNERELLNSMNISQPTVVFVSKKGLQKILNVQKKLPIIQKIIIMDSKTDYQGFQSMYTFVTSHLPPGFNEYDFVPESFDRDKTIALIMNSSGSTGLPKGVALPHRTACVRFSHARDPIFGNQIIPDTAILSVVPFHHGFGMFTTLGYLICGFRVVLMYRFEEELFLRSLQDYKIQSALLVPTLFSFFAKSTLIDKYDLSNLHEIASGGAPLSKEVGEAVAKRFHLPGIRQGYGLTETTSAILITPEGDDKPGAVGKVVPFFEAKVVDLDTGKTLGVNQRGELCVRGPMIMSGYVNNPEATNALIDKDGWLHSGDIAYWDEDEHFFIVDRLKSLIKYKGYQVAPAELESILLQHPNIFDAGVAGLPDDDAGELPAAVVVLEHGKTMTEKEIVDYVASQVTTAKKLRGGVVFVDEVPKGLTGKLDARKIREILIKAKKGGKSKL
Beta Lactamase, sequence (Q932Y6 whole entry): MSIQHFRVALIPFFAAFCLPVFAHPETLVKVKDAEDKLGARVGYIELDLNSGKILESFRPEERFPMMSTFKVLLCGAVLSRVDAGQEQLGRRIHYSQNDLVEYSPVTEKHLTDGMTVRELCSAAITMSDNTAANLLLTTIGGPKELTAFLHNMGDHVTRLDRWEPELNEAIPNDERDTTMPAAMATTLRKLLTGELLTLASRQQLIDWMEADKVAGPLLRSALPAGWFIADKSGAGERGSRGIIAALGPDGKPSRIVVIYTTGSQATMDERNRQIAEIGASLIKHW
Paired box protein Pax-8, sequence (Q06710 whole entry): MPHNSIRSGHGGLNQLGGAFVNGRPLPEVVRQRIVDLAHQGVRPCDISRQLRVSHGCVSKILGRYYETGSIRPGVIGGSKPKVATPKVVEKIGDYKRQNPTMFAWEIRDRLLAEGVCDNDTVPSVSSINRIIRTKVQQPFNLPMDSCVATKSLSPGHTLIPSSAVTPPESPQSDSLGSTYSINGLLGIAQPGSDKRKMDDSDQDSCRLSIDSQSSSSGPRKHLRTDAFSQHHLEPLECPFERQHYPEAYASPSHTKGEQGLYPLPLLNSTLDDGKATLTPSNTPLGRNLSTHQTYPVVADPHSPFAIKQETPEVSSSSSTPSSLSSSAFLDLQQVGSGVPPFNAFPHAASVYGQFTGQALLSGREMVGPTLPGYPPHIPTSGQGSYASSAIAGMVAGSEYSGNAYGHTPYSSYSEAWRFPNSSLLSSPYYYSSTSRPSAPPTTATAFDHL

With `CS(=O)(=O)c1ncc(Cl)c(C(=O)Nc2ccc3ccccc3c2)n1` the IC50 [1] was > 5.53 µM (not active), the AC50 (Paired box protein Pax-8) was 7.81 µM (active) and the AC50 [2] was 2.49 µM (active). For the same molecule, the EC50 (Protein RecA) was 4.84 µM (active), the EC50 [3] was 3.6 µM (active) and the IC50 (Beta Lactamase) was 7.13 µM (active). For the same molecule, the EC50 [4] was > 112 µM (not active), the AC50 (A-375 [5]) was > 35 µM (active) and the IC50 (CHO) was 1.95 µM (active). For the same molecule, the EC50 [6] was < 30 µM (active), the IC50 [7] was 2.07 µM (active) and the AC50 (A-375 [8]) was > 35 µM (active).

In the case of `CC1CCN(S(=O)(=O)c2ccc(C(C)C)cc2)CC1`, the EC50 (Ion channel NompC [9]) is reported as > 29.9 µM (not active), the EC50 (Mucolipin-3 [10]) is reported as 1.33 µM (active) and the EC50 (Mucolipin-3 [11]) is reported as 1.12 µM (active). For the same molecule, the EC50 [12] was > 53 µM (inactive) and the EC50 (Ion channel NompC [13]) was > 29.9 µM (not active).

In the case of `CN1c2ccccc2Sc2cc(Br)ccc21`, the IC50 (NADPH oxidase 1) is reported as > 50 µM (not active).
